In patent US8466186B2, “Compounds” (Boehringer Ingelheim International GmbH, priority 2010, dated 2013):

molecular target: T1, recombinant human mPGES-1 (Homo sapiens, UniProt O14684); assay: Assay A: mPGES-1 enzyme assay (HTRF detection of PGE2); type: biochemical; conditions: biological assay A; microsomes from E. coli expressing recombinant human mPGES-1; read-out: mPGES-1 inhibitory effect IC50
T1 construct: made in house; host or cells: Rosetta E. coli (membrane/microsome fraction)
T1 sequence (O14684 1-152): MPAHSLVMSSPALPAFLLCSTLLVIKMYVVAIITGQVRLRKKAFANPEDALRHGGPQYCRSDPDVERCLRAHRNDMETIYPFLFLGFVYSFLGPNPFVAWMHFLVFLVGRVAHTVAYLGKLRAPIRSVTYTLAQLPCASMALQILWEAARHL
Description: The aim of this assay is to determine the affinity of a test compound for the mPGES-1 enzyme.
• 1. Riendeau, D., R. Aspiotis, D. Ethier, Y. Gareau, E. Grimm, J. Guay, S. Guiral, H. Juteau, J. Mancini, N. Methot, J. Rubin, and R. Friesen, Inhibitors of the inducible microsomal prostaglandin E2 synthase (mPGES-1) derived from MK-886. Bioorg Med Chem Lett, 2005. 15(14): p. 3352-3355. • 2. Cote, B., L. Boulet, C. Brideau, D. Claveau, D. Ethier, R. Frenette, M. Gagnon, A. Giroux, J. Guay, S. Guiral, J. Mancini, E. Martins, F. Masse, N. Methot, D. Riendeau, J. Rubin, D. Xu, H. Yu, Y. Ducharme, and R. Friesen, Substituted phenanthrene imidazoles as potent, selective, and orally active mPGES-1 inhibitors. Bioorg Med Chem Lett, 2007. 17(24): p. 6816-6820. Assay A: mPGES-1 Enzyme Assay List of Reagents Used: • Glutathione (Sigma, G-4251) • Freeze culture in Rosetta E coli expression strain. • LB growth media with Ampillicillin (Amp) final concentration in culture 50 μg/mL • Chloroamphenicol stock 34 mg/mL (chloro) final concentration in culture 34 μg/mL • Sterile growth flasks for 500 mL-1 liter cultures • 0.1 M KP, buffer pH 7.4 • 9.25% HCl • PGH2 (0.25 mM) • Fe (II) Cl2 tetrahydrate, 99% (Sigma, 220229) • 384-well plate with compounds • 96-well plate, polypropylene (Thermo fast 96 skirted VWR) • 384-well plate polypropylene PCR plate (Greiner 785201) • Greiner 384-well plate pp (In vitro cat. no. 781280) • Adhesive sealing film for 96-well plates (Sigma-Aldrich) • Aluminium foil (PCR foil, 310-0030-127-471 from Labora) • PBS (GIBCO 14040) • Prostaglandin E2 Assay (Cisbio, cat. no. 62P2APEC) • Biomek FX robot (Beckman Coulter) • Biomek NX robot (Beckman Coulter) • Multidrop; micro or combi (ThermoLabsystems) • Plate reader: Safire2 (Tecan)
Microsomes from Rosetta E. coli bacteria expressing recombinant human mPGES-1 can be derived as described below:
Inoculate 5 mL LB with Amp and Chloro with bacteria from freeze culture. Incubate overnight at 37° C. with 200 rpm. Thereafter, inoculate 500-800 mL LB containing Amp and Chloro with the 5 mL on culture and grow to OD640 of 0.6-0.8. Chill the culture to +4° C. before induction. Induce the culture with IPTG at a final concentration of 400 μM. Express the protein at room temp 18-23° C. with 200 rpm shaking overnight.
The following steps can be performed on the following day: • 1. Spin down the cells in 250 mL centrifuge flasks for 15 min at 7000 rpm • 2. Dissolve the pellet from 250 mL culture in 12.5 mL homogenization buffer • 3. Disintegrate the cells by sonication, 4×10 seconds at 35% amplitude • 4. Add 2.5 mL MgCl2 (100 mM) and DNase 12.5 μL (0.8 mg/mL) and incubate on ice for 30 min • 5. Spin down the bacteria debris and save the supernatant, 7000 rpm for 15 min • 6. Isolate the protein containing membranes in the supernatant by ultracentrifugation 45000×g for 1 hour. • 7. Discard the supernatant and dissolve the pellet in 20 mM KPi buffer and aliquot the enzyme and store aliquots at −80° C.
Before each experiment is performed an aliquot of the enzyme is thawed and it can then be dissolved in 0.1 M KP, pH 7.4 buffer containing 2.5 mM GSH. 50 μL of this enzyme solution is subsequently dispensed in a 384-well plate at room temperature. 0.5 μL of the inhibitor dissolved in DMSO is thereafter added to each well and incubated for 25 minutes at room temperature. Subsequently, 2 μL of PGH2 dissolved in an appropriate solvent is added to each well and after one minute at room temperature, the acidified stop solution containing FeCl2 is added. 4 μL of the total volume is transferred to a separate plate and diluted 750-fold in two separate steps before quantification of PGE2.
In order to quantitate the amount of PGE2 that has been formed, a homogenous time resolved fluorescent (HTRF) detection of PGE2 can be performed by the use of a commercially available kit from CisBio essentially according to the manufacturer's protocol. […]

SMILES	IC50
Cn1c(Nc2cc(CNC(=O)C(C)(N)C(F)(F)F)ccc2C(F)(F)F)nc2cc(Cl)c(N3CCC(C(F)(F)F)CC3)cc21 (stereo not drawn) [Example 108]	5.8 nM
Cn1c(Nc2cc(CN[S+]([O-])C(C)(C)C)ccc2C(F)(F)F)nc2cc(Cl)c(N3CCC(C(F)(F)F)CC3)cc21 (stereo not drawn) [Example 109, N-(4-Trifluoromethyl-3-(5-chloro-1-methyl-6-(4-trifluoromethyl-piperidin-1-yl)-1H-benzo[d]imidazol-2-ylamino)benzyl)-2-methylpropane-2-sulfinamide]	5.2 nM
Cn1c(Nc2cc(CNS(=O)(=O)C(C)(C)C)ccc2C(F)(F)F)nc2cc(Cl)c(N3CCC(C(F)(F)F)CC3)cc21 [Example 110, N-(4-Trifluoromethyl-3-(5-chloro-1-methyl-6-(4-trifluoromethyl-piperidin-1-yl)-1H-benzo[d]imidazol-2-ylamino)benzyl)-2-methylpropane-2-sulfonamide]	1.5 nM
Cn1c(Nc2cc(CNC(=O)C3(C(F)(F)F)CC3)ccc2F)nc2cc(Cl)c(N3CCC(C(F)(F)F)CC3)cc21 [Example 111, N-{4-Fluoro-3-[5-chloro-1-methyl-6-(4-trifluoromethyl-piperidin-1-yl)-1H-benzimidazol-2-ylamino]-benzyl}-1-trifluoromethyl-cyclopropanamide]	19 nM
Cn1c(Nc2cc(CNC(=O)C3(C(F)(F)F)CC3)ccc2F)nc2cc(Cl)c(N3CCC(F)(F)CC3)cc21 [Example 112]	22 nM
Cn1c(Nc2cc(CNC(=O)C3(C(F)(F)F)CC3)ccc2F)nc2cc(C#N)c(N3CCC(C(F)(F)F)CC3)cc21 [Example 113]	11 nM
Cn1c(Nc2cc(CNC(=O)C3(C(F)(F)F)CC3)c(F)cc2Cl)nc2cc(Cl)c(N3CCC(C(F)(F)F)CC3)cc21 [Example 114, N-{4-Chloro-2-fluoro-5-[5-chloro-1-methyl-6-(4-trifluoromethyl-piperidin-1-yl)-1H-benzimidazol-2-ylamino]-benzyl}-1-trifluoromethyl-cyclopropanamide]	4.8 nM
Cn1c(Nc2cc(CNC(=O)C3(C(F)(F)F)CC3)c(F)cc2Cl)nc2cc(Cl)c(N3CCC(C)(C)CC3)cc21 [Example 115]	9.2 nM
Cn1c(Nc2cc(CNC(=O)C3(C(F)(F)F)CC3)cc(F)c2Cl)nc2cc(Cl)c(N3CCC(C(F)(F)F)CC3)cc21 [Example 116, N-{4-Chloro-5-fluoro-3-[5-chloro-1-methyl-6-(4-trifluoromethyl-piperidin-1-yl)-1H-benzimidazol-2-ylamino]-benzyl}-1-trifluoromethyl-cyclopropanamide]	5.9 nM
CC(C)(C)C(=O)NCc1ccc(OC(F)(F)F)c(Nc2nc3cc(C#N)c(N4CCCC(C(F)(F)F)C4)cc3[nH]2)c1 (stereo not drawn) [Example 117, N-{3-(5-Cyano-6-[3-trifluoromethyl-piperidin-1-yl)-1H-benzo[d]imidazol-2-ylamino]-4-trifluoromethoxy-benzyl}-2,2-dimethyl-propionamide]	120 nM
CC1(C(=O)NCc2ccc(Cl)c(Nc3nc4ccc(N5CCCC5)cc4[nH]3)c2)CCCCC1 [Example 118]	53 nM
CC1(C(=O)NCc2ccc(Cl)c(Nc3nc4ccc(N5CCOCC5)cc4[nH]3)c2)CCCCC1 [Example 119]	> 100 nM
CN1CCN(c2cc3[nH]c(Nc4cc(CNC(=O)C5(C)CCCCC5)ccc4Cl)nc3cc2Cl)CC1 [Example 120]	266 nM
CC1(C(=O)NCc2ccc(Cl)c(Nc3nc4cc(Cl)c(N5CCOCC5)cc4[nH]3)c2)CCCCC1 [Example 121]	60 nM
COC[C@@H]1CCCN1c1cc2[nH]c(Nc3cc(CNC(=O)C4(C)CCCCC4)ccc3Cl)nc2cc1Cl [Example 122]	7.9 nM
Cn1c(Nc2cc(CNC(=O)C3(C)CCCCC3)ccc2Cl)nc2ccc(N3CCCC3)cc21 [Example 123]	29 nM
Cn1c(Nc2cc(CNC(=O)C3(C(F)(F)F)CC3)ccc2Cl)nc2cc(Cl)c(N3CCCC(C(F)(F)F)C3)cc21 (stereo not drawn) [Example 124]	2.6 nM
CC(C)N1CCN(c2cc3c(cc2Cl)nc(Nc2cc(CNC(=O)C4(C(F)(F)F)CC4)ccc2Cl)n3C)CC1 [Example 125]	32 nM
